# Target: T1, KCNQ2/3 channels (Homo sapiens, UniProt O43525+O43526)
# T1 construct: expressed in transfected cells; host or cells: CHO-K1
# Assay: Fluorescence assay using a voltage-sensitive dye (fluorimetry)
# Format: cell-based
# Details: CHO-K1 cells expressing KCNQ2/3; for EC50: agonistic activity; for Emax: relative to retigabine = 100%, negative values = antagonistic, read-out: Fluorimetry % efficacy (I/EC50, retigabine = 100%)
# Protocol: Pharmacological Experiments Fluorescence Assay Using a Voltage-Sensitive Dye
# […] CHO-K1 cells expressing KCNQ2/3 channels are cultivated adherently at 37° C., 5% CO2 and 95% humidity in cell culture bottles (e.g. 80 cm^2 TC flasks, Nunc) with DMEM-high glucose (Sigma Aldrich, D7777) including 10% FCS (PAN Biotech, e.g. 3302-P270521) or alternatively MEM Alpha Medium (1×, liquid, Invitrogen, #22571), 10% foetal calf serum (FCS) (Invitrogen, #10270-106, heat-inactivated) and the necessary selection antibiotics.
# Before being seeded out for the measurements, the cells are washed with a 1×DPBS buffer without Ca^2+/Mg^2+ (e.g. Invitrogen, #14190-094) and detached from the bottom of the culture vessel by means of Accutase (PAA Laboratories, #L11-007) (incubation with Accutase for 15 min at 37° C.). The cell count then present is determined using a CASY™ cell counter (TCC model, Schärfe System) in order subsequently to apply 20,000 to 30,000 cells/well/100 μl of the described nutrient medium, depending on density optimisation for the individual cell line, to 96-well measuring plates of the Corning™ CellBIND™ type (flat clear-bottom black polystyrene microplates, #3340). Incubation is then carried out for one hour at room temperature, without gassing or adjusting the humidity, followed by incubation for 24 hours at 37° C., 5% CO2 and 95% humidity.
# The voltage-sensitive fluorescent dye from the Membrane Potential Assay Kit (Red™ bulk format part R8123 for FLIPR, MDS Analytical Technologies™) is prepared by dissolving the contents of a vessel of Membrane Potential Assay Kit Red Component A in 200 ml of extracellular buffer (ES buffer, 120 mM NaCl, 1 mM KCl, 10 mM HEPES, 2 mM CaCl2, 2 mM MgCl2, 10 mM glucose; pH 7.4). After removal of the nutrient medium, the cells are washed with 200 μl of ES buffer, then covered with a layer of 100 μl of the dye solution prepared above and incubated for 45 min at room temperature with exclusion of light.
# The fluorescence measurements are carried out with a BMG Labtech FLUOstar™, BMG Labtech NOVOstar™ or BMG Labtech POLARstar™ instrument (525 nm excitation, 560 nm emission, bottom-read mode). After incubation of the dye, 50 μl of the substances to be tested in the desired concentrations, or 50 μl of ES buffer for control purposes, are introduced into separate cavities of the measuring plate and incubated for 30 min at room temperature whilst being shielded from light. The fluorescence intensity of the dye is then measured for 5 min and the fluorescence value F1 of each well is thus determined at a given, constant time. 15 μl of a […] KCl solution […] are then added to each well. The change in fluorescence is subsequently measured until all relevant measured values have been obtained (mainly […]). At a given time after KCl application, a fluorescence value F2 is determined, in this case at the time of the fluorescence peak.
# For calculation, the fluorescence intensity F2 is compared with the fluorescence intensity F1, and the agonistic activity of the target compound on the potassium channel is determined therefrom. F2 and F1 are calculated as follows: […]
# In order to determine whether a substance has an agonistic activity,
# [formula] is determined by adding to the reaction batch only the buffer solution instead of the substance to be tested, determining the value F1K of the fluorescence intensity, adding the potassium ions as described above and measuring a value F2K of the fluorescence intensity. Then F2K and F1K are calculated as follows: […]
# A substance has an agonistic activity on the potassium channel if
# Independently of the comparison of
# [formula] it is also possible to conclude that a target compound has an agonistic activity if an increase in
# [formula] is to be observed as the dosage of the target compound increases.
# Calculations of EC50 values are carried out with the aid of Prism v4.0 software (GraphPad Softwares™).
EC50,Emax,IC50 (antagonistic activity),SMILES
76 nM,225%,–,"O=C(CCC1CCCCC1)Nc1cccnc1SCCS(=O)(=O)c1ccccc1 [Example 6, N-[2-[2-(Benzenesulfonyl)-ethylsulfanyl]-pyridin-3-yl]-3-cyclohexyl propionamide]"
56.5 nM,134%,–,"O=C(CCC1CCc2ccccc2C1)Nc1cccnc1SCCS(=O)(=O)c1cccc(C(F)(F)F)c1 (centres unmarked) [Example 57, 3-(1,2,3,4-Tetrahydronaphthalen-2-yl)-N-[2-[2-[[3-(trifluoromethyl)phenyl]sulfonyl]-ethylsulfanyl]-pyridin-3-yl]propionamide]"
841 nM,109%,–,"O=C(/C=C/c1ccc(F)cc1)Nc1cccnc1SCCS(=O)(=O)c1cccc(C(F)(F)F)c1 [Example 31, (E)-3-(4-Fluorophenyl)-N-[2-[2-[[3-(trifluoromethyl)phenyl]sulfonyl]-ethylsulfanyl]-pyridin-3-yl]acrylamide]"
157 nM,165%,–,"O=C(Cc1cccs1)Nc1cccnc1SCCCc1cccc(C(F)(F)F)c1 [Example 23, 2-Thiophen-2-yl-N-[2-[3-[3-(trifluoromethyl)phenyl]-propylsulfanyl]-pyridin-3-yl]acetamide]"
23.5 nM,168%,–,"O=C(CC1CC2CCC1C2)Nc1cccnc1SCCS(=O)(=O)c1cccc(C(F)(F)F)c1 (centres unmarked) [Example 62, 2-(5-Bicyclo[2.2.1]heptanyl)-N-[2-[2-[[3-(trifluoromethyl)phenyl]sulfonyl]-ethylsulfanyl]-pyridin-3-yl]acetamide]"
312 nM,108%,–,"O=C(CC1CCCCC1)Nc1cccnc1SCCSc1cccc(C(F)(F)F)c1 [Example 29, 2-Cyclohexyl-N-[2-[2-[[3-(trifluoromethyl)phenyl]sulfanyl]-ethylsulfanyl]-pyridin-3-yl]acetamide]"
95 nM,172%,–,"O=C(CC1CCCCC1)Nc1cccnc1SCCS(=O)(=O)c1ccccc1 [Example 1, N-[2-[2-(Benzenesulfonyl)-ethylsulfanyl]-pyridin-3-yl]-2-cyclohexyl acetamide]"
–,-45%,192 nM,"COc1ccccc1CC(=O)Nc1cccnc1SCCS(=O)(=O)c1cccc(C(F)(F)F)c1 [Example 9, 2-(2-Methoxyphenyl)-N-[2-[2-[[3-(trifluoromethyl)phenyl]sulfonyl]-ethylsulfanyl]-pyridin-3-yl]acetamide]"
208 nM,59%,–,"O=C(CC1CCc2ccccc2C1)Nc1cccnc1SCCS(=O)(=O)c1cccc(C(F)(F)F)c1 (centres unmarked) [Example 52, 2-(1,2,3,4-Tetrahydronaphthalen-2-yl)-N-[2-[2-[[3-(trifluoromethyl)phenyl]sulfonyl]-ethylsulfanyl]-pyridin-3-yl]acetamide]"
363 nM,139%,–,"O=C(CC1CCCCO1)Nc1cccnc1SCCS(=O)(=O)c1cccc(C(F)(F)F)c1 (centres unmarked) [Example 39, 2-Tetrahydropyran-2-yl-N-[2-[2-[[3-(trifluoromethyl)phenyl]sulfonyl]-ethylsulfanyl]-pyridin-3-yl]acetamide]"
–,27.4%,–,"O=C(Nc1cccnc1SCCS(=O)(=O)c1cccc(C(F)(F)F)c1)c1ccccc1O [Example 53, 2-Hydroxy-N-[2-[2-[[3-(trifluoromethyl)phenyl]sulfonyl]-ethylsulfanyl]-pyridin-3-yl]benzamide]"
–,43%,–,"O=C(Nc1cccnc1SCCS(=O)(=O)c1cccc(C(F)(F)F)c1)c1ccc(Cl)nc1 [Example 35, 6-Chloro-N-[2-[2-[[3-(trifluoromethyl)phenyl]sulfonyl]-ethylsulfanyl]-pyridin-3-yl]-pyridine-3-carboxylic acid amide]"
71 nM,170%,–,"O=C(CCCc1ccccc1)Nc1cccnc1SCCS(=O)(=O)c1cccc(C(F)(F)F)c1 [Example 25, 4-Phenyl-N-[2-[2-[[3-(trifluoromethyl)phenyl]sulfonyl]-ethylsulfanyl]-pyridin-3-yl]-butyramide]"
47.5 nM,167%,–,"O=C(CCC1CCCCCC1)Nc1cccnc1SCCS(=O)(=O)c1cccc(C(F)(F)F)c1 [Example 58, 3-Cycloheptyl-N-[2-[2-[[3-(trifluoromethyl)phenyl]sulfonyl]-ethylsulfanyl]-pyridin-3-yl]propionamide]"
457 nM,43%,–,"O=C(Nc1cccnc1SCCS(=O)(=O)c1cccc(C(F)(F)F)c1)c1cccs1 [Example 18, N-[2-[2-[[3-(Trifluoromethyl)phenyl]sulfonyl]-ethylsulfanyl]-pyridin-3-yl]-thiophene-2-carboxylic acid amide]"
27 nM,142%,–,"O=C(CC1CCCCC1)Nc1cccnc1SCCS(=O)(=O)c1cccc(C(F)(F)F)c1 [Example 2, 2-Cyclohexyl-N-[2-[2-[[3-(trifluoromethyl)phenyl]sulfonyl]-ethylsulfanyl]-pyridin-3-yl]acetamide]"
22 nM,79%,–,"O=C(Nc1cccnc1SCCS(=O)(=O)c1cccc(C(F)(F)F)c1)C(F)(F)C1CCCCC1 [Example 68, 2-Cyclohexyl-2,2-difluoro-N-[2-[2-[[3-(trifluoromethyl)phenyl]sulfonyl]-ethylsulfanyl]-pyridin-3-yl]acetamide]"
208 nM,112%,–,"O=C(CCc1ccccc1)Nc1cccnc1SCCS(=O)(=O)c1cccc(C(F)(F)F)c1 [Example 27, 3-Phenyl-N-[2-[2-[[3-(trifluoromethyl)phenyl]sulfonyl]-ethylsulfanyl]-pyridin-3-yl]propionamide]"
19 nM,108%,–,"O=C(CC1CCCCCC1)Nc1cccnc1SCCS(=O)(=O)c1cccc(C(F)(F)F)c1 [Example 49, 2-Cycloheptyl-N-[2-[2-[[3-(trifluoromethyl)phenyl]sulfonyl]-ethylsulfanyl]-pyridin-3-yl]acetamide]"
424 nM,125%,–,"O=C(Cc1cccs1)Nc1cccnc1SCCS(=O)(=O)c1ccccc1 [Example 7, N-[2-[2-(Benzenesulfonyl)-ethylsulfanyl]-pyridin-3-yl]-2-thiophen-2-yl acetamide]"
200 nM,49%,–,"O=C(Nc1cccnc1SCCOc1ccc(F)cc1)c1ccc(F)c(F)c1 [Example 64, 3,4-Difluoro-N-[2-[2-(4-fluorophenoxy)-ethylsulfanyl]-pyridin-3-yl]benzamide]"
45 nM,167%,–,"O=C(CC1CCCC1)Nc1cccnc1SCCS(=O)(=O)c1cccc(C(F)(F)F)c1 [Example 14, 2-Cyclopentyl-N-[2-[2-[[3-(trifluoromethyl)phenyl]sulfonyl]-ethylsulfanyl]-pyridin-3-yl]acetamide]"
123 nM,82%,–,"O=C(CCc1cccs1)Nc1cccnc1SCCS(=O)(=O)c1cccc(C(F)(F)F)c1 [Example 26, 3-Thiophen-2-yl-N-[2-[2-[[3-(trifluoromethyl)phenyl]sulfonyl]-ethylsulfanyl]-pyridin-3-yl]propionamide]"
–,38%,–,"O=C(Cc1ccncc1)Nc1cccnc1SCCS(=O)(=O)c1cccc(C(F)(F)F)c1 [Example 36, 2-Pyridin-4-yl-N-[2-[2-[[3-(trifluoromethyl)phenyl]sulfonyl]-ethylsulfanyl]-pyridin-3-yl]acetamide]"
99 nM,127%,–,"O=C(CCC1CCCCC1)Nc1cccnc1SCCS(=O)(=O)c1cccc(C(F)(F)F)c1 [Example 41, 3-Cyclohexyl-N-[2-[2-[[3-(trifluoromethyl)phenyl]sulfonyl]-ethylsulfanyl]-pyridin-3-yl]propionamide]"
